# Like-named read-outs stand apart in the source and are kept apart here.
# Tests used:
# Type in all cases: cell-based
# HIV-1/181-Cys = test: Inhibition of HIV-1 induced syncytium formation in CEM cells, RT mutant 181-Cys; conditions: Human immunodeficiency virus 1, CCRF-CEM, 96 h
# Source text: (§1) CEM cells were obtained from the American Tissue Cell Culture Collection (Rockville, Md.). HIV-1(IIIB) was originally obtained from the culture supernatant of persistently HIV-1-infected H9 cells and was provided by R. C. Gallo and M. Popovic (National Cancer Institute, National Institutes of Health, Bethesda, Md.). […] 67: 5353-5359 (1993); HIV-1/Lys-138 ("Lys-138") was selected for resistance against TSAO-m^3T as described in Balzarini et al, Virology 192: 246-253 (1993) and Balzarini et al, Proc. Nat. Acad. Sci. USA 90: 6952-6956 (1993); HIV-1/181-Cys ("181-Cys") was selected for resistance against pyridinone L-697,661 as described in Balzarini et al, Virology 192: 246-253 (1993); and HIV-1/188-His ("188-His") was selected for resistance against HEPT as described in Balzarini et al, Mol. Pharmocol. 44: 694-701 (1993). 188-His was then further converted to HIV-1/188-Leu "188-Leu") upon further passage in cell culture in the absence of the HEPT.
# (§2) CEM cells were suspended at ≈300,000 cells per ml of culture medium and infected with approximately 100 CCID50 (CCID50 being the 50% cell culture infective dose) of HIV-1(IIIB) or one of the HIV-1 RT mutant strains described above. Then 100 μl of the infected cell suspensions was added to 200 μl microtiter plate wells containing 100 μl of appropriate serial (5-fold) dilutions of the test compounds. The inhibitory effect of the test compounds on HIV-1 induced syncytium formation in CEM cells was examined microscopically on day 4 post infection.
# in vitro = conditions: human, cem cells, CC50 (50% cytostatic concentration), Table 2B; CEM cell proliferation; averages of 2 to 3 independent experiments
# Source text: as §1
# ^b 50% cytostatic concentration (i.e., compound concentration require
# to inhibit CEM cell proliferation by 50%)
# HIV-1/100-Ile = test: Inhibition of HIV-1 induced syncytium formation in CEM cells, RT mutant 100-Ile; conditions: Human immunodeficiency virus 1, CCRF-CEM, 96 h
# Source text: as §1, §2
# HIV-1/106-Ala = test: Inhibition of HIV-1 induced syncytium formation in CEM cells, RT mutant 106-Ala; conditions: Human immunodeficiency virus 1, CCRF-CEM, 96 h
# Source text: as §1, §2
# HIV-1/Lys-138 = test: Inhibition of HIV-1 induced syncytium formation in CEM cells, RT mutant 138-Lys; conditions: Human immunodeficiency virus 1, CCRF-CEM, 96 h
# Source text: as §1, §2
# HIV-1(IIIB) = test: Inhibition of HIV-1 induced syncytium formation in CEM cells, wild type; conditions: Human immunodeficiency virus 1, IIIB, CCRF-CEM, 96 h, Table 2B, WT = HIV-1(IIIB), day 4, averages of 2 to 3 independent experiments, read-out: Antiviral Activity of Comparative Compounds EC50, WT
# Source text: as §1, §2
# [1] = Table 2B, day 4, averages of 2 to 3 independent experiments, read-out: Antiviral Activity of Comparative Compounds EC50, 181-Cys
# [2] = Table 2B, day 4, averages of 2 to 3 independent experiments, read-out: Antiviral Activity of Comparative Compounds EC50, 100-Ile
# [3] = Table 2B, day 4, averages of 2 to 3 independent experiments, read-out: Antiviral Activity of Comparative Compounds EC50, 106-Ala
# [4] = Table 2B, day 4, averages of 2 to 3 independent experiments, read-out: Antiviral Activity of Comparative Compounds EC50, 138-Lys
Structure (SMILES),EC50 (HIV-1/181-Cys; [1]) [µg/mL],CC50 (in vitro) [µg/mL],EC50 (HIV-1/100-Ile; [2]) [µg/mL],EC50 (HIV-1/106-Ala; [3]) [µg/mL],EC50 (HIV-1/Lys-138; [4]) [µg/mL],EC50 (HIV-1(IIIB)) [µg/mL],"EC50 (HIV-1/181-Cys; read-out: Antiviral Activity of Comparative Compounds EC50, 181-Cys, Table 2B, day 4, averages of 2 to 3 independent experiments) [µg/mL]","EC50 (HIV-1/100-Ile; read-out: Antiviral Activity of Comparative Compounds EC50, 100-Ile, Table 2B, day 4, averages of 2 to 3 independent experiments) [µg/mL]","EC50 (HIV-1/106-Ala; read-out: Antiviral Activity of Comparative Compounds EC50, 106-Ala, Table 2B, day 4, averages of 2 to 3 independent experiments) [µg/mL]","EC50 (HIV-1/Lys-138; read-out: Antiviral Activity of Comparative Compounds EC50, 138-Lys, Table 2B, day 4, averages of 2 to 3 independent experiments) [µg/mL]"
CC(C)OC(=O)c1cc(NC(=S)c2ccco2)ccc1Cl [Compound 86],5,7.4,5,5,4,0.1,,,,
Cc1ccoc1C(=S)Nc1ccc(Cl)c(C(=O)OC(C)C)c1 [Compound 87],0.53,15,3,1,0.55,0.02,,,,
Cc1ccsc1C(=S)Nc1ccc(Cl)c(C(=O)OC(C)C)c1 [Compound 88],0.27,5.2,0.7,0.6,0.3,0.01,,,,
CC(C)OC(=O)c1cc(NC(=S)c2cccs2)ccc1Cl [Compound 89],4,4.9,3,4,1.9,0.09,,,,
COc1ccccc1C(=S)Nc1ccc(Cl)c(C(=O)OC(C)C)c1 [Compound 90],5.5,27,3.5,6,0.7,0.19,,,,
Cc1ccccc1C(=S)Nc1ccc(Cl)c(C(=O)OC(C)C)c1 [Compound 91],7.5,5.8,4.5,8.5,5,0.45,,,,
CC(C)OC(=O)c1cc(NC(=S)c2ccsc2)ccc1Cl [Compound 92],0.37,4.3,0.4,0.75,0.5,0.02,,,,
CC(C)(C)ON=Cc1cc(NC(=S)c2ccccc2)ccc1Cl [Compound 93],0.7,9.7,2,0.1,0.08,0.03,,,,
Cc1ccoc1C(=S)Nc1ccc(Cl)c(C=NOC(C)C)c1 [Compound 94],0.6,3.1,0.75,0.5,0.15,0.01,,,,
Cc1ccsc1C(=S)Nc1ccc(Cl)c(C=NOC(C)C)c1 [Compound 95],0.5,13,0.65,0.08,0.16,0.008,,,,
CC(C)ON=Cc1cc(NC(=S)c2ccccc2)ccc1Cl [Compound 96],> 1,9,> 1,0.75,0.17,0.05,,,,
Cc1occc1C(=S)Nc1ccc(Cl)c(C=NOC(C)C)c1 [Compound 97],3.3,3.3,3.5,≥ 4,2,0.009,,,,
CC(C)C(OC(=O)c1cc(NC(=S)c2ccccc2F)ccc1Cl)C(C)C [Compound 98],> 1,7.5,> 1,0.85,0.7,0.06,,,,
CC(C)C(OC(=O)c1cc(NC(=S)c2ccc[nH]2)ccc1Cl)C(C)C [Compound 99],,> 100,,,,0.1,> 10,> 1,> 10,> 10
CC(C)C(OC(=O)c1cc(NC(=S)c2cccn2C)ccc1Cl)C(C)C [Compound 100],0.65,> 100,4,0.8,0.4,0.03,,,,
